Experimental data reported in patent publication US9956205B2, “Polymorphic forms of 2-(5-bromo-4-(4-cyclopropylnaphthalen-1-yl)-4H-1,2,4-triazol-3-ylthio)acetic acid and uses thereof” (Ardea Biosciences, Inc., priority 2010, dated 2018).
Values after ≈ are worked out from the molar mass of the structure shown.

Key:
Assay type in all cases: physicochemical
[1] = Gravimetric vapor sorption (GVS) study; settings: at high humidity
From the text: FIG. 12 illustrates a GVS study of form 1 and form 2. […] This property of decreased hygroscopicity greatly aids in the preparation of solid pharmaceutical dosage forms.

[2] = Solubility in acetate buffer (25 mM, pH 5), assayed by HPLC; settings: 25 °C, pH 5, aqueous buffer, thermodynamic from solid; for solubility at 5 day: Day 5; for solubility at 7 day: Day 7
Protocol: (§1) Form 1 (˜25 mg) and acetate buffer (25 mM, pH 5, 4 mL), prepared with and without sodium chloride (ionic strength adjusted to=0.1M), were placed in a glass vial which was sealed and placed on a laboratory rotator in a 25° C. incubator. After 1, 5, and 7 days the samples were filtered and assayed by HPLC.
as §1, with “Form 2” for “Form 1”

[3] = Solid held in equilibrium with its saturated solvent solution at 60° C.; settings: saturated acetone solution, 6 days
[4] = Drug substance stability of packaged solid; settings: 1 month, double LDPE bags inside HDPE container
Protocol: Form 2 of 2-(5-bromo-4-(4-cyclopropylnaphthalen-1-yl)-4H-1,2,4-triazol-3-ylthio)acetate was tested under various conditions to determine drug substance stability. […] Packaging was in a double low density polyethylene plastic bags inside a HDPE container.

Row | adsorption (hygroscopicity) by GVS [1] [% w/w] | solubility at 5 day ([2]; pH 5, NaCl (I = 0.1)) [mg/mL] | solubility at 7 day ([2]; pH 5, NaCl (I = 0.1)) [mg/mL] | solubility at 1 day ([2]; pH 5, No NaCl, Day 1) [mg/mL] | solubility at 5 day ([2]; pH 5, No NaCl) [mg/mL] | solubility at 7 day ([2]; pH 5, No NaCl) [mg/mL] | outcome of equilibration with saturated solution [3] | degradation of packaged drug substance ([4]; 25° C.-60% RH) | degradation of packaged drug substance ([4]; 40° C.-75% RH) | Compound
1 | < 0.2 | 0.257 (≈ 635 µM) | 0.304 (≈ 753 µM) | 0.265 (≈ 656 µM) | 0.213 (≈ 528 µM) | 0.157 (≈ 388 µM) | decomposition |  |  | O=C(O)CSc1nnc(Br)n1-c1ccc(C2CC2)c2ccccc12 [Form 1, 2-(5-bromo-4-(4-cyclopropylnaphthalen-1-yl)-4H-1,2,4-triazol-3-ylthio)acetic acid]
2 | < 0.1 |  |  |  |  |  |  | No degradation | No degradation | O=C(O)CSc1nnc(Br)n1-c1ccc(C2CC2)c2ccccc12 [Form 2, 2-(5-bromo-4-(4-cyclopropylnaphthalen-1-yl)-4H-1,2,4-triazol-3-ylthio)acetic acid]
